Data taken from patent US20100048731A1, “Hydroxylated Long-Chain Resveratrol Derivatives Useful as Neurotrophic Agents” (Centre National de la Recherche Scientifique(CNRS), priority 2006, published 2010).
Like-named read-outs stand apart in the source and are kept apart here.

How the values were obtained:
[1] = tested on: microglial cell cultures treated with LPS; experiment: Nitrite release (Griess method) in LPS-activated microglial cell cultures; assay type: cell-based; conditions: LPS 0.01 μg/ml; for decrease in nitrite production compared to the control values: three independent experiments, concentration not stated (5×10^-6, 10^-6 and 10^-7 M tested)
Description: (§1) The experiments carried out thus relate to the capacity of RFA molecules (MRFA and DMRFA) to inhibit, in activated microglia, the release of nitrites and TNF-α.
The activity of NO-synthase type II (NOS II) represents a microglial activity parameter often analyzed in the literature. This enzyme is responsible for the synthesis of nitric oxide radicals under conditions of inflammatory activation. Microglia at rest only express levels at the immunoblotting detection limit. Activation of 24 to 48 hours leads to a strong increase in this expression. The product of this enzyme, NO, quickly breaks down in culture to form nitrites.
(§2) In the experiments performed, NO2^− concentrations were measured after 24 hours and 48 hours of activation in microglial cell cultures treated with 0.01 μg/ml of LPS, in the presence of products RFA-12, MRFA-10, MRFA-12, MRFA-14, MRFA-16, MRFA-18, DMRFA-10, DMRFA-12, DMRFA-14, DMRFA-16, DMRFA-18, M-resveratrol, DM-resveratrol and resveratrol at concentrations of 5×10^−6 M, 10^−6 M and 10^−7 M.

[2] = tested on: microglial cell cultures treated with LPS; experiment: TNF-α release (ELISA) in LPS-activated microglial cell cultures; assay type: cell-based; conditions: read-out: decrease in TNF-α production compared to control values
Procedure: as §1
The expression of TNF-α represents a microglial activation parameter often analyzed in the literature. […] A 24-hour activation by LPS leads to a strong increase in expression, detectable by ELISA.
as §2, with “TNF-α” for “NO2^−”, “24” for “24 hours and 48”, “LPS” for “LPS,”, “of” for “of products RFA-12,”

[3] = tested on: neural stem cells; experiment: Neural stem cell proliferation; assay type: cell-based, mouse; conditions: 10^-6 M; cultured for 5 days
Procedure: (§3) Neurospheres are obtained from mouse embryo telencephalon cells cultivated in a defined medium containing 20 ng/ml EGF. After dissociation, the spheres proliferate for 3 days in the presence of EGF (20 ng/ml) during the so-called proliferation phase.
1. RFA-12 induces the differentiation of neural stem cells into neurons. […] However, if the neurospheres are treated with RFA-12 at a concentration of 10^−6 M to 10^−8 M, an increase in the number of neurons compared to the control (untreated cells) is observed. At concentrations of 10^−6 M, 10^−7 M and 10^−8 M we can observe a 120%, 90% and 80% increase, respectively, in the neuron population compared to the control fixed at 100%. […] In order to see whether RFA and its analogues also act on neural stem cell proliferation, these cells are dissociated and then cultured in the presence of RFA (10^−6 M and 10^−8 M) for 5 days, and then the number of living cells and their size and morphology are recorded.

[4] = tested on: neural stem cells; experiment: Differentiation of neural stem cells (neurospheres) into neurons, by immunocytochemistry; assay type: cell-based, mouse; conditions: for increase in the neuron population compared to the control fixed at 100%: 3 days of differentiation
Procedure: as §3
The spheres are then collected and deposited on an poly-ornithine support in a defined medium in the presence of 2 ng/ml EGF. Under these conditions, the spheres adhere to the support and differentiate. The compounds to be tested, RFA-12 and its analogues, dissolved beforehand in ethanol, are added immediately after the deposit of the neurospheres at various concentrations ranging from 10^−5 M to 10^−9 M. The control cultures are treated with a negative control (ethanol) and a positive control (retinoic acid).
To screen our compounds we performed a double labeling, namely for neurons and for astrocytes.
For the detection of astrocytes, a secondary antibody coupled to a fluorochrome derived from rhodamine, Alexa488 (green), was used.
In order to be able to quantify the results, the nuclei are marked by an intercalating agent, TO-PRO (blue). The cultures are then observed under a confocal microscope.

[5] = ABTS test (antioxidant capacity, hydroxyl radicals from the Fenton reaction); assay type: physicochemical; conditions: after 2 hours of incubation
Description: In light of the results obtained with the DPPH test, the use of the ABTS ([2,2′-azino-bis-(3-ethylbenzthiazoline-6-sulfonic acid)]) test was considered, [11], [12]. The ABTS test is more sensitive insofar as it uses less encumbered hydroxyl radicals.
The ABTS molecule reacts with the hydroxyl (OH) radicals generated in the medium by the Fenton reaction to form a cation radical, ABTS^+ (green color), which is absorbent at 405 nm. Thus, when it is placed in the presence of an antioxidant molecule, one capable of reducing hydroxyl radicals, a reduction in absorbance at 405 nm can be observed.
On a 96-well ELISA plate, add: • 180 μl of a 50/50 water/ethanol mixture; • 30 μl of a 1 mM aqueous ABTS solution; • 30 μl of a 1 mM aqueous FeSO4 solution; • 30 μl of the product to be tested at the following concentrations: 10 mM, 5 mM, 2.5 mM, 1 mM, 0.5 mM, 0.1 mM, 0.01 mM and 0.001 mM; • 30 μl of a 100 mM aqueous H2O2 solution.
After incubating for 45 minutes, 1 hour and 2 hours, the result is given by measuring optical density at 405 nm using a spectrophotometer.
In order to maximally reduce solubility problems, RFA-10 was tested. Resveratrol was again used as a positive control.

[6] = DPPH test (antioxidant capacity); assay type: physicochemical; conditions: after 3 hours of incubation (time stated for the hybrid molecules); read-out: IC50 (concentration at which 50% of the radicals are reduced), DPPH test
Procedure: The DPPH [(2,2′-di(4-tert-octylphenyl)1-picrylhydrazyl] test was used to determine the antioxidant capacity of our compounds [9]. DPPH is a stabilized radical that absorbs at 517 nm (violet color). When it is placed in the presence of an antioxidant molecule, the latter will react with the radical. Thus, a decrease in absorbance can be observed. Antioxidant capacity thus results in a decrease in absorbance at 517 nm.
a) Implementation of the DPPH Test
On a 96-well ELISA plate, add: • 100 μl of the various solutions at the following concentrations: 10 mM, 5 mM, 2.5 mM, 1 mM, 0.5 mM, 0.1 mM, 0.01 mM and 0.001 mM; • 100 μl of a 400 μM solution of DPPH in ethanol.
After incubating for 45 minutes, 2 hours and 3 hours, the result is given by measuring optical density at […] using a spectrophotometer.
The result is expressed as IC50, which is the concentration at which 50% of the radicals are reduced by the antioxidant molecule.
The inventors tested resveratrol, as a positive control, as well as RFA-10, RFA-12 and RFA-16.

[7] = LPS 0.01 μg/ml, 24 hours of activation, compound at 5×10^-6 M

Structure (SMILES)	decrease in nitrite production compared to the control values [1]	inhibition at 5 µM [2, 7]	also measured
COc1ccc(/C=C/c2cc(OC)c(CCCCCCCCCCO)c(OC)c2)cc1OC [DMRFA-10]	20%	40%	
COc1ccc(/C=C/c2cc(OC)c(CCCCCCCCCCCCO)c(OC)c2)cc1OC [DMRFA-12]		40%	
COc1ccc(/C=C/c2cc(OC)cc(OC)c2)cc1 [M-resveratrol, reference compound]			inhibition at 5 µM ([2]; 24 h): 20%
COc1ccc(/C=C/c2cc(OC)c(CCCCCCCCCCO)c(OC)c2)cc1 [MRFA-10]	20%	20 to 40%	
COc1ccc(/C=C/c2cc(OC)c(CCCCCCCCCCCCO)c(OC)c2)cc1 [MRFA-12]		20 to 40%	
COc1ccc(/C=C/c2cc(OC)c(CCCCCCCCCCCCCCO)c(OC)c2)cc1 [MRFA-14, (E)-14-(4-(4-methoxystyryl)-2,6-dimethoxyphenyl)tetradecan-1-ol]		20 to 40%	
OCCCCCCCCCCCCc1c(O)cc(/C=C/c2ccc(O)cc2)cc1O [RFA-12]		40%	effect on neural stem cell proliferation [3]: inhibits the proliferation of neural stem cells; decrease in nitrite levels ([1]; compound at 5×10^-6 M): 50%; differentiation of neural stem cells, result in words ([4]; 10^-5 M): does not induce differentiation due to toxicity; increase in the neuron population compared to the control fixed at 100% ([4]; 10^-6 M): 120%; increase in the neuron population compared to the control fixed at 100% ([4]; 10^-7 M): 90%; increase in the neuron population compared to the control fixed at 100% ([4]; 10^-8 M): 80%; differentiation of neural stem cells, result in words ([4]; 10^-9 M): only weak activity
Oc1ccc(/C=C/c2cc(O)cc(O)c2)cc1 [resveratrol]	20%	30%	IC50 [5]: 30 µM; IC50 [6]: 10 µM
